According to patent US11096985B2, “Antimicrobial peptides, their variants and uses” (priority 2015, dated 2021):
Where a SMILES comes first, the peptide text is derived from it. [ ]: non-standard residue; d: D form.

Assays:
S. aureus COL (MRSA) = experiment: Synergistic activity with Ertapenem (4 μg/ml) against MRSA, MIC; format: cell-based, Staphylococcus aureus; details: Ertapenem 4 μg/ml; D-form
Procedure, shortened: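 Broth microdilution in MH broth with 5.0×10^5 cfu/ml inoculum, 37° C for 20–24 h. MIC was the lowest concentration without visible growth (range 0.125–128 μg/ml). L- and D-form peptides were tested on S. aureus RN4220 and COL (MRSA), alone and with Ertapenem at 4 μg/ml.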

[1] = test system: Pseudomonas aeruginosa (ATCC 27853); experiment: Radial diffusion assay (RDA) against P. aeruginosa; format: cell-based; details: Peptides 50 μg; Gentamycin 5 μg; diameter including the wells
Procedure: (§1) The radial diffusion assay (RDA) was carried out as described by Andersen et al. (2010). Briefly, 30 ml of 1/10 Muller-Hinton broth (MHB) supplemented with 1% agarose and 5.0×10^5 CFU/ml S. aureus or E. coli or K. pneumoniae, P. aeruginosa cells was poured into a single-well omnitray (Nunc) and overlaid with a TSP 96-well plate. […] The peptides were also tested against Fusarium oxysporum and Verticillium dahliae, for which 1/3 potato dextrose agarose was used. To test the synergistic effect of peptides, each peptide was mixed in equimolar concentrations. Mix1 (met1-12), Mix2 (met3, 4 and 5), Mix3 (met 8, 9 and 10), Mix 4 (met11, 12) and Mix5 (8, 9, 10, 11, 12) were prepared and tested against E. coli and S. aureus. Gentamicin and vancomycin were included as positive controls for bacteria and amphotericin B was used as the control for fungi.

[2] = test system: Escherichia coli, Staphylococcus aureus, Klebsiella pneumoniae and Pseudomonas aeruginosa; experiment: Radial diffusion assay, summary over the bacteria tested; format: cell-based; details: Gentamicin 5 μg
Procedure: The radial diffusion assay (RDA) was carried out as described by Andersen et al. (2010). Briefly, 30 ml of 1/10 Muller-Hinton broth (MHB) supplemented with 1% agarose and 5.0×10^5 CFU/ml S. aureus or E. coli or K. pneumoniae, P. aeruginosa cells was poured into a single-well omnitray (Nunc) and overlaid with a TSP 96-well plate. One hundred μg of each synthesized peptide was tested. The peptides were also tested against Fusarium oxysporum and Verticillium dahliae, for which 1/3 potato dextrose agarose was used. To test the synergistic effect of peptides, each peptide was mixed in equimolar concentrations. Mix1 (met1-12), Mix2 (met3, 4 and 5), Mix3 (met 8, 9 and 10), Mix 4 (met11, 12) and Mix5 (8, 9, 10, 11, 12) were prepared and tested against E. coli and S. aureus. Gentamicin and vancomycin were included as positive controls for bacteria and amphotericin B was used as the control for fungi.

[3] = test system: Pseudomonas aeruginosa (ATCC 27853); format: cell-based
Procedure: (§2) Minimum inhibition concentrations (MICs) were determined against Escherichia coli (ATCC 25922), Staphylococcus aureus (ATCC 25923), Klebsiella pneumoniae (ATCC 10031) and Pseudomonas aeruginosa (ATCC 27853). Also clinical strains of E. coli, K. pneumoniae, E. cloacae, P. aeruginosa, Serratia marcescens, Proteus mirabilis, S. pneumoniae, Acinetobacter baumannii, A. johnsonii and S. aureus were used for MICs assays. Additionally, clinical strains of yeast including Candida albicans, C. glabrata, C. parapsilosis and C. quillermondiae were used. The susceptibility of these microorganisms to Chain peptides were determined using micro broth dilution assay. Colonies of the respective microorganism from Muller Hinton (MH) agar plates incubated overnight were suspended in MH broth media and final concentration of microorganism was adjusted to 5.0×10^5 cfu/ml. An aliquot of 10 μl of each Chain peptide, or gentamicin, tetracycline as reference antibiotics were added in differing concentrations along with 90 μl of bacterial suspension to 96 well polypropylene plates and incubated at 37° C. for 20 to 24 hours. Concentrations of Chain peptides and reference antibiotics ranged from 0.125 to 128 μg/ml and the MICs were recorded as the lowest concentration with no visual growth of bacteria. Similarly, antifungal MICs were tested in Potato dextrose broth.

[4] = test system: Escherichia coli (ATCC 25922); format: cell-based
Procedure: as §2

[5] = test system: Staphylococcus aureus (ATCC 25923); format: cell-based
Procedure: as §2

[6] = test system: Klebsiella pneumoniae (ATCC 10031); format: cell-based
Procedure: as §2

[7] = test system: Escherichia coli (ATCC 25922); format: cell-based; details: Peptides 50 μg; Gentamycin 5 μg; diameter including the wells
Procedure: as §1

[8] = test system: Staphylococcus aureus (ATCC 25923); format: cell-based; details: Peptides 50 μg; Gentamycin 5 μg; diameter including the wells
Procedure: as §1

[9] = test system: Klebsiella pneumoniae (ATCC 10031); format: cell-based; details: Peptides 50 μg; Gentamycin 5 μg; diameter including the wells
Procedure: as §1

| Compound | MIC against MRSA strains along with Ertapenem, D-peptide (S. aureus COL (MRSA)) | Inhibition zone, Pseudomonas aeruginosa [1] | zone of inhibition over the four bacteria [2] | Minimum inhibitory concentration, Pseudomonas aeruginosa (ATCC 27853) [3] | Minimum inhibitory concentration, Escherichia coli (ATCC 25922) [4] | Minimum inhibitory concentration, Staphylococcus aureus (ATCC 25923) [5] | Minimum inhibitory concentration, Klebsiella pneumoniae (ATCC 10031) [6] | Inhibition zone, Escherichia coli [7] | Inhibition zone, Staphylococcus aureus [8] | Inhibition zone, Klebsiella pneumoniae [9] |
| --- | --- | --- | --- | --- | --- | --- | --- | --- | --- | --- |
| CC(C)C[C@@H](NC(=O)[C@@H](CCCCN)NC(=O)[C@@H](CCCCN)NC(=O)[C@@H](Cc1ccccc1)NC(=O)[C@@H](CC(C)C)NC(=O)[C@@H](Cc1c[nH]c2ccccc12)NC(=O)[C@@H](CCCNC(=N)N)NC(=O)[C@@H](Cc1c[nH]c2ccccc12)NC(=O)[C@@H](CCCCN)NC(=O)[C@@H](CCCNC(=N)N)NC(=O)[C@H](N)CCCCN)C(=O)O [Chain310D] (H-[dK][dR][dK][dW][dR][dW][dL][dF][dK][dK][dL]-OH) | 0.03 µg/mL | – | – | – | – | – | – | – | – | – |
| Gentamicin [reference compound] | – | 24 mm | 22-24 mm | 0.25 µg/mL | 1 µg/mL | 0.25 µg/mL | 0.25 µg/mL | 22 mm | 24 mm | 22 mm |
